This note sets out measurements from ChEMBL document CHEMBL4421717, “Antagonists and agonists of bitter taste receptors and uses thereof” (2012).

pEC50, pIC50: −log10 of the molar value. Active and inactive are the calls of the source. The rule behind the calls is not given here.

Common to all, as to assay type: functional, cell-based
For assay [1], the target named is Taste receptor type 2 member 31 (Homo sapiens) (UniProt P59538). As to the kind of experiment: Antagonist activity at recombinant human N-terminal rat ST3 receptor-fused TAS2R44 expressed in HEK293T cells co-expressing Galpha16gust44 assessed as inhibition of aristolochic acids-induced intracellular calcium level at 100 uM by FLIPR assay.
Sequence of Taste receptor type 2 member 31 (Homo sapiens) (P59538 whole entry, the tested form may be a part): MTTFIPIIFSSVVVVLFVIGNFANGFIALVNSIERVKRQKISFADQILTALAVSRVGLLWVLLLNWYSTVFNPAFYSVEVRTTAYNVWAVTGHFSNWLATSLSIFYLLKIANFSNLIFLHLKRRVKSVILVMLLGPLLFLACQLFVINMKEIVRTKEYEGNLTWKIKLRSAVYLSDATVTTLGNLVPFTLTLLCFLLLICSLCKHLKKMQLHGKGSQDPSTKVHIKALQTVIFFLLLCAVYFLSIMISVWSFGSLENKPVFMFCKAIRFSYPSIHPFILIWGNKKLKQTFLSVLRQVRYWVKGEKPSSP
The target in assay [2] is T1, Taste receptor type 2 member 46 (Homo sapiens, UniProt P59540).
T1 sequence (P59540 whole entry): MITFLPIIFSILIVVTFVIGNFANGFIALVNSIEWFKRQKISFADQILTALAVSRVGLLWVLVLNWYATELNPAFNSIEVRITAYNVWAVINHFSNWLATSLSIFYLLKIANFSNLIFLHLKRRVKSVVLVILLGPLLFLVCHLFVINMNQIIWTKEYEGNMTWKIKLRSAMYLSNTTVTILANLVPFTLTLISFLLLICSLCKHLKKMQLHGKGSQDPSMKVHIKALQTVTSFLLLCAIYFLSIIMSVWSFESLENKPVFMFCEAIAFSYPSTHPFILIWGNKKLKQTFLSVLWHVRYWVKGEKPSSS
As to the kind of experiment: Antagonist activity at recombinant human N-terminal rat ST3 receptor-fused TAS2R46 expressed in HEK293T cells co-expressing Galpha16gust44 assessed as inhibition of 100 uM absinthin-induced intracellular calcium level 100 uM by FLIPR assay. On the technique in general: A change in cytosolic calcium serves as a functional read-out for many receptors and channels.

Assay [3] has as its target T1, Taste receptor type 2 member 46. Put plainly: Antagonist activity at recombinant human N-terminal rat ST3 receptor-fused TAS2R46 expressed in HEK293T cells co-expressing Galpha16gust44 assessed as inhibition of 300 uM picrotoxinin-induced intracellular calcium level 100 uM by FLIPR assay.
For assay [4], the target named is Taste receptor type 2 member 42 (Homo sapiens) (UniProt Q7RTR8). Put plainly: Agonist activity at recombinant human N-terminal rat ST3 receptor-fused TAS2R42 expressed in HEK293T cells co-expressing Galpha16gust44 assessed as effect on intracellular calcium level at 100 uM by FLIPR assay.
Sequence of Taste receptor type 2 member 42 (Homo sapiens) (Q7RTR8 whole entry, the tested form may be a part): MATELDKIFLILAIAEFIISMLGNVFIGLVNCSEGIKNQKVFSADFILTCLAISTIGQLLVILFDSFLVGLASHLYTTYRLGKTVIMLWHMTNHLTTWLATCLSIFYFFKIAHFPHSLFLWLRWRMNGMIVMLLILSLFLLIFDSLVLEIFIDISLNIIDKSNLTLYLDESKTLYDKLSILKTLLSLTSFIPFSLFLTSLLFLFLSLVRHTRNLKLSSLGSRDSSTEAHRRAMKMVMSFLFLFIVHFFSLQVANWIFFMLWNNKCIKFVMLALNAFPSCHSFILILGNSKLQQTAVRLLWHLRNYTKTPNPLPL
Assay [5] concerns the target Taste receptor type 2 member 31 (Homo sapiens) (UniProt P59538). Put plainly: Agonist activity at recombinant human N-terminal rat ST3 receptor-fused TAS2R44 expressed in HEK293T cells co-expressing Galpha16gust44 assessed as effect on intracellular calcium level at 100 uM by FLIPR assay.
In assay [6] the target is Taste receptor type 2 member 7 (Homo sapiens) (UniProt Q9NYW3). Put plainly: Activity at recombinant human N-terminal rat ST3 receptor-fused TAS2R7 expressed in HEK293T cells co-expressing Galpha16gust44 assessed as increase in quinine sulfate-induced intracellular calcium level at 100 uM by FLIPR assay.
Sequence of Taste receptor type 2 member 7 (Homo sapiens) (Q9NYW3 whole entry, the tested form may be a part): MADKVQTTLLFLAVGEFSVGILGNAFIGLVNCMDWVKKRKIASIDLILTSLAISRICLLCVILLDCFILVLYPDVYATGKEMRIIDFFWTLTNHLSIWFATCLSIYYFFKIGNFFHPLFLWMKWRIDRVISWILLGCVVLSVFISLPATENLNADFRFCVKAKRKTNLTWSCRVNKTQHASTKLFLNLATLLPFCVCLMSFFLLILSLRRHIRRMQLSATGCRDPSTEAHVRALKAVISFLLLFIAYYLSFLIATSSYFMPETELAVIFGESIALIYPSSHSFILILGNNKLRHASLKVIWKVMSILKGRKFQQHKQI
Assay [7] deals with T2, Taste receptor type 2 member 39 (Homo sapiens) (UniProt P59534).
T2 sequence (whole entry): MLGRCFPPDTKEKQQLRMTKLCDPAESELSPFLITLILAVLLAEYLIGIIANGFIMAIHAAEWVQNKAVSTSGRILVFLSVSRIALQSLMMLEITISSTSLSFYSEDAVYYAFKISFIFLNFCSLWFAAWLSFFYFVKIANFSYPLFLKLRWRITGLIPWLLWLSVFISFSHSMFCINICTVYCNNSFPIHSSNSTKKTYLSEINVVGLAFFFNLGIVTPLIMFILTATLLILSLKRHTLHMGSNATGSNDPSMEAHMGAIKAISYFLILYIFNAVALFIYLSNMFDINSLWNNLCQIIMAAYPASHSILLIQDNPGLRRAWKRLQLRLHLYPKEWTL
As to the kind of experiment: Agonist activity at recombinant human N-terminal rat ST3 receptor-fused TAS2R39 expressed in HEK293T cells co-expressing Galpha16gust44 assessed as effect on intracellular calcium level at 100 uM by FLIPR assay.

Assay [8] concerns the target T3, Taste receptor type 2 member 46 (Homo sapiens) (UniProt P59540).
T3 sequence (whole entry): T1 sequence (P59540 whole entry)
Put plainly: Competitive antagonist activity at recombinant human N-terminal rat ST3 receptor-fused TAS2R46 expressed in HEK293T cells co-expressing Galpha16gust44 assessed as inhibition strychnine-induced intracellular calcium level by measuring strychnine induced maximum signal amplitude at 10 uM by FLIPR assay (reference value: 0.42 +/- 0.09 au)).

Assay [9] deals with T4, Taste receptor type 2 member 1 (Homo sapiens) (UniProt Q9NYW7).
T4 sequence (whole entry): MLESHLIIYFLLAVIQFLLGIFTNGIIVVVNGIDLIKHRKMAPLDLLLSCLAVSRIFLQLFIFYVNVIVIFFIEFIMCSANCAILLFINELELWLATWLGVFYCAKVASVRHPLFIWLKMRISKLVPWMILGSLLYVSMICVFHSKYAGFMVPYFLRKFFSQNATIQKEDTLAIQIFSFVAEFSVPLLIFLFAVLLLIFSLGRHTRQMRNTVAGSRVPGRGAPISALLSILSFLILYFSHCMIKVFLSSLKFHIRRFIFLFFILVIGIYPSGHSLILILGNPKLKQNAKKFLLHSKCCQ
Put plainly: Agonist activity at recombinant human N-terminal rat ST3 receptor-fused TAS2R1 expressed in HEK293T cells co-expressing Galpha16gust44 assessed as effect on intracellular calcium level at 100 uM by FLIPR assay.

For assay [10], the target named is Taste receptor type 2 member 60 (Homo sapiens) (UniProt P59551). Put plainly: Agonist activity at recombinant human N-terminal rat ST3 receptor-fused TAS2R60 expressed in HEK293T cells co-expressing Galpha16gust44 assessed as effect on intracellular calcium level at 100 uM by FLIPR assay.
Sequence of Taste receptor type 2 member 60 (Homo sapiens) (P59551 whole entry, the tested form may be a part): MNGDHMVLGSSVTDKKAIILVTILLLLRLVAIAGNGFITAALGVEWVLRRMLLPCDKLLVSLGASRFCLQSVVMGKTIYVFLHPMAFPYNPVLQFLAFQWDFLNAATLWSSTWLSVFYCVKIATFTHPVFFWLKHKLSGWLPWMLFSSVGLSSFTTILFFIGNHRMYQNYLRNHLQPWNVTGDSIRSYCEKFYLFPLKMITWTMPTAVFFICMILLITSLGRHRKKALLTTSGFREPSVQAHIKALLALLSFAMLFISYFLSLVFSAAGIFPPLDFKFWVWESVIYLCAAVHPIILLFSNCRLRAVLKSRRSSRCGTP
Assay [11] addresses Taste receptor type 2 member 31 (Homo sapiens, UniProt P59538). As to the kind of experiment: Agonist activity at recombinant human N-terminal rat ST3 receptor-fused TAS2R44 expressed in HEK293T cells co-expressing Galpha16gust44 assessed as effect on intracellular calcium level by FLIPR assay.
The target in assay [12] is T5, Taste receptor type 2 member 13 (Homo sapiens) (UniProt Q9NYV9).
T5 sequence (whole entry): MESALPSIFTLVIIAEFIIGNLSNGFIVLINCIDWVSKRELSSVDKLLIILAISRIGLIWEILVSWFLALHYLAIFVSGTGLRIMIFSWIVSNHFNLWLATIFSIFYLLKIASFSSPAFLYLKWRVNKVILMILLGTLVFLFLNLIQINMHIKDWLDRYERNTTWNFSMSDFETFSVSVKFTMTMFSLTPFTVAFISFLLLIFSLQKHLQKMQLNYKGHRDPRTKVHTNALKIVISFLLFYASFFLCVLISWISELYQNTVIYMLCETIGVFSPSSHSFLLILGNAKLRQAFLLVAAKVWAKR
Put plainly: Agonist activity at recombinant human N-terminal rat ST3 receptor-fused TAS2R13 expressed in HEK293T cells co-expressing Galpha16gust44 assessed as effect on intracellular calcium level at 100 uM by FLIPR assay.

In assay [13] the target is T3, Taste receptor type 2 member 46 (Homo sapiens). As to the kind of experiment: Competitive antagonist activity at recombinant human N-terminal rat ST3 receptor-fused TAS2R46 expressed in HEK293T cells co-expressing Galpha16gust44 assessed as inhibition strychnine-induced intracellular calcium level by measuring strychnine induced maximum signal amplitude at 100 uM by FLIPR assay (reference value: 0.42 +/- 0.09 au)).

Assay [14] has as its target Taste receptor type 2 member 40 (Homo sapiens) (UniProt P59535). As to the kind of experiment: Agonist activity at recombinant human N-terminal rat ST3 receptor-fused TAS2R40 expressed in HEK293T cells co-expressing Galpha16gust44 assessed as effect on intracellular calcium level at 100 uM by FLIPR assay.

Sequence of Taste receptor type 2 member 40 (Homo sapiens) (P59535 whole entry, the tested form may be a part): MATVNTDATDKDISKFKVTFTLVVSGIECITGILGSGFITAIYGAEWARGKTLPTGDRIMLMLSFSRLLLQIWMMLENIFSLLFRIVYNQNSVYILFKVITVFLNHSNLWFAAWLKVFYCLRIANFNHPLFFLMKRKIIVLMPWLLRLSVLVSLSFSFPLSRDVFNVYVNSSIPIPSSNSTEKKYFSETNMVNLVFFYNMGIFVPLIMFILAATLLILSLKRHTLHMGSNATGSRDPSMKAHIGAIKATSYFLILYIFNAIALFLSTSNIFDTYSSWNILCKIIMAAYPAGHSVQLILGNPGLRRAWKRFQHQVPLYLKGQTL
Sequence of Taste receptor type 2 member 31 (P59538 whole entry, the tested form may be a part): as the sequence (P59538 whole entry, the tested form may be a part) above

For the molecule `C/C1=C\C[C@H](O)[C@@H](C)C[C@H]2OC(=O)[C@@H](C)C2CC1` (some centres undefined), the inhibition entry in [1] was “Active”. Moreover, the pIC50 – broadly, the negative decadic logarithm of the IC50, by convention in mol/L – was 4.24 in [2] and 4.64 in assay [3].

On to `C/C1=C\C[C@H](O)/C(C)=C/[C@H]2OC(=O)[C@@H](C)C2CC1` (some centres undefined), for which the result in [4], in [7], in [10], in assay [12] and in assay [14] was inactive. Moreover, the result in [5], in assay [6] and in assay [9] was Active. The Activity in assay [8] turned out to be 0.4 a.u; in [13] it was 0.34 a.u. Moreover, the pEC50 (in general, the EC50 on a negative log10 scale, so that one unit is a factor of ten) in assay [11] is 4.50.
